Measurements as given in patent US20180064729A1, “Treatment of Pulmonary Disease” (Intercept Pharmaceuticals, Inc., priority 2012, published 2018).
Entries after “also recorded” stand apart in the source; their conditions may differ.

How the values were obtained:
[1] = tested on: lung mRNA of inflammation, endothelium-proliferative and NO-signaling genes; test: MCT-induced pulmonary hypertensive rat model: lung mRNA expression by qRT-PCR; type: in vivo
Method: (§1) Pulmonary hypertension was induced by subcutaneous injection of 60 mg/kg monocrotaline (MCT) (Sigma Chemicals, St. Louis, Mo., USA) dissolved in 0.5 N HCl solution. Briefly, male Sprague-Dawley (SD) rats, weighing between 200 to 250 g, were housed in climate-controlled conditions with a 12 hours light:12 hours dark cycle, with free access to chow and water. SD rats were randomly allocated to the following groups: • 1) SD rats left untreated and sacrificed after 7 (n=5) or 28 (n=5) days; • 2) SD rats receiving a single subcutaneous injection of vehicle MCT sacrificed after 7 days (n=5); • 3) SD rats receiving a single subcutaneous injection of vehicle MCT sacrificed after 28 days (n=10); • 4) SD rats receiving a single subcutaneous injection of MCT [60 mg/kg, n=5] sacrificed after 7 days; • 5) SD rats receiving single subcutaneous injection of MCT [60 mg/kg, n=15] sacrificed after 28 days; • 6) SD rats receiving single subcutaneous injection of MCT [60 mg/kg] and immediately treated with OCA (30 mg/kg, daily 5 days a week, by oral gavage, n=5) for 7 days]; • 7) SD rats receiving single subcutaneous injection of MCT [60 mg/kg] and immediately treated with OCA (30 mg/kg, daily 5 days a week, by oral gavage, n=10) for 28 days]; • 8) SD rats receiving single subcutaneous injection of MCT [60 mg/kg] and immediately treated with tadalafil (10 mg/kg/day, in drinking water, n=5) for 7 days]; • 9) SD rats receiving single subcutaneous injection of MCT [60 mg/kg] and immediately treated with tadalafil (10 mg/kg/day, in drinking water, n=10) for 28 days]; • 10) SD rats receiving single subcutaneous injection of MCT [60 mg/kg] and immediately treated with vehicle OCA (by oral gavage, n=5) for 7 days; • 11) SD rats receiving single subcutaneous injection of MCT [60 mg/kg] and immediately treated with vehicle OCA (by oral gavage, n=10) for 28 days.
mRNA expression analysis of genes involved in inflammation [interleukin 6 (IL-6), monocyte chemoattractant protein-1 (MCP-1/CCL2), cyclooxygenase-2], endothelium-proliferative factors (vascular endothelial growth factor (VEGF) and angiotensin-converting enzyme 2 (ACE2)), NO-signaling [endothelial nitric oxide synthase (eNOS), phosphodiesterase type 5 (PDES), cyclic guanylate cyclase subunits type 1a3 and 1b3, GC1a3, GC1b3, protein kinase G 1, PKG1], were performed. Isolation of RNA from lung, qRT-PCR was performed according to the fluorescent TaqMan methodology. PCR primers and probes specific for mRNA sequences of aforementioned target genes and of the reference gene 18S rRNA was purchased from Life Technologies (Paisley, UK).

Sprague-Dawley (SD) rats [2] = test: MCT-induced pulmonary hypertensive rat model: survival (Kaplan-Meier); type: in vivo; conditions: MCT-treated rats, study period 28 days
Method: (§2) Pulmonary hypertension was induced by subcutaneous injection of 60 mg/kg monocrotaline (MCT) (Sigma Chemicals, St. Louis, Mo., USA) dissolved in 0.5 N HCl solution. Briefly, male Sprague-Dawley (SD) rats, weighing between 200 to 250 g, were housed in climate-controlled conditions with a 12 hours light:12 hours dark cycle, with free access to chow and water. […]
During the study period, the animals were observed daily for mortality, and median survival time in each group was calculated with Kaplan-Meier analysis.

[3] = tested on: murine lung fibroblast cell line (ATCC number CCL-206); test: Col I and CXCL12 expression in stimulated lung fibroblasts (qRT-PCR, ELISA, Sircol); type: cell-based; conditions: 24 hours
Method: FXR activation reduced the production of collagen I and […] by resident fibroblasts. Specifically, after a 24 hour period of starving, cells from the murine lung fibroblast cell line (ATCC number CCL-206) were stimulated with or without TGFβ1 (10 ng/ml) and 6ECDCA (10 μM) for 24 hours and then the FXR, SHP and Col I gene expression was analyzed by qRT-PCR. After a 24 hours period of starving, cells from the murine lung fibroblast cell line (ATCC number CCL-206) were stimulated with or without TNFα (10 ng/ml) and 6ECDCA (10 μM) for 24 hours and then the FXR, SHP and CXCL12 gene expression was analyzed by qRT-PCR.
The downregulation of Col I and CXCL12 induced by 6ECDCA was FXR-mediated. After an overnight period of starving, murine lung fibroblast cell line (ATCC number CCL-206) was stimulated with or without TGFβ1 (10 ng/ml) and 6ECDCA (1 μM) for 24 hours—with and without block of the FXR by siRNA—and then the FXR, SHP, Col I and CXCL12 gene expression was analyzed by qRT-PCR. CXCL12 and Col I secretion in the supernatants was analyzed by ELISA and the Sircol collagen assay, respectively.
The downreguation of Col I and CXCL12 induced by 6ECDCA was SHP-mediated. Specifically, transfection of pulmonary fibroblasts with vector carrying the HA-SHP chimera was carried out to induce a SHP overexpression (WB analysis of the HA-SHP expression). Col I and CXCL12 expression (by qRT-PCR) was analyzed at baseline and after stimulation with TGFβ1. SHP overexpression was sufficient to down-regulate the Col I and CXCL12 expression, basically and after stimulation with TGFβ1.
After an overnight period of starving, murine lung fibroblast cell line (ATCC number CCL-206) were stimulated with/without TGFβ1 (10 ng/ml) and 6ECDCA (1 μM) for 24 hours—with and without block of the SHP by siRNA—and then the FXR, SHP, Col I and CXCL12 gene expression was analyzed by qRT-PCR. CXCL12 and Col I secretion in the supernatants was analyzed by ELISA and the Sircol collagen assay, respectively.

[4] = tested on: C57B1/6 wild-type and FXR−/− mice; test: murine bleomycin-induced pulmonary fibrosis model; type: in vivo; conditions: bleomycin day 0; 5 mg/kg daily; 22 days
Method: The murine model of bleomycin-induced pulmunary fibrosis was induced in C57B1/6 wild-type and FXR^−/− mice (females, 6-8 weeks old). Groups of treatment included: • WT mice: A—saline (day 0); B—bleomycin (day 0); C—bleomycin (day 0)- • Compound 1 (also referred to as 6ECDCA) (5 mg/kg, daily) • FXR^−/− mice: D—saline (day 0); E—bleomycin (day 0); F—bleomycin (day 0) • Compound 1 (also referred to as 6ECDCA) (5 mg/kg, daily).
After 22 days, the mice were sacrified and the subsequent analyses were performed: (1) H&E and […] staining on lung sections; (2) Quantification of collagen I into the lung by qRT-PCR and Sircol collagen assay; (3) FXR, SHP and CXCL12 mRNA quantification by qRT-PCR; and (4) CXCL12 protein quantification by ELISA on lung homogenates.

Sprague-Dawley (SD) rats [5] = test: MCT-induced pulmonary hypertensive rat model: right ventricular hypertrophy index; type: in vivo; conditions: day 28; MCT 60 mg/kg s.c.; OCA 30 mg/kg oral gavage, tadalafil 10 mg/kg/day in drinking water
Method: as §2

[6] = tested on: DSS (Dahl salt-sensitive) rat; test: Dahl salt-sensitive (DSS) rat high salt diet study; type: in vivo
Excerpt: The rodent model for salt-sensitive hypertension was a DSS (Dahl salt-sensitive) rat (e.g., Rapp). […] Specifically, the rodent models used for the study were male 4-week old DSS rats (e.g., SS/JrHsd) from Harlan Laboratories. The normal diet of the DSS rats was 0.49% NaCl and the high salt diet was 8% NaCl (e.g., Teklad Custom Research Diet). The rats were divided into four groups (herein referred to as DSS study rats): • Group 1; Normal salt diet (1% Methylcellulose) (N=6) • Group 2; High-salt diet (Vehicle; 1% MC) (N=9) • Group 3; High-salt diet (6ECDCA 10mg/kg/day) (N=6) • Group 4; High-salt diet (6ECDCA 30mg/kg/day) (N=9)
The following analyses were carried out: ADMA and NO levels in serum and urine and tissues (e.g., liver, muscle and kidney), blood pressure and heart rate, fasting blood glucose and insulin (HOMA-IR), ipGTT (IR-index), and urinary protein and creatinine. Additional studies such as electrolytes (Na+), histological analysis and TGFbeta expression in kidney, DDAH expression and activity in liver, skeletal muscle and kidney, and Akt-phosphorylation level in liver, skeletal muscle and kidney can also be carried out.
6ECDCA was administered orally daily for 6-weeks. Blood and urine collections were performed at week 0 and week 6 and analyzed by methods known in the art. Blood pressure measurement was performed at week 0, 1, 2, 4 and 6 by tail cuff devices, which was performed on conscious models and was non-invasive. The blood pressure was also obtained via catheter, which was performed when the model was sacrificed. The glucose challenge test was performed at week 5. Renal function was analyzed by measuring the urinary volume, protein and creatinine in a 24 h-urine sample. Histological analysis was performed using the Masson&Trichrome staining. Insulin resistance was analyzed using the ipGTT test and the HOMA/IR index. The ADMA and NO levels were detected in blood concentration and urinary excretion (FIG. 1).

small pulmonary arteries = test: MCT-induced pulmonary hypertensive rat model: pulmonary artery wall thickness; type: in vivo; conditions: for MCT-induced increase in wall thickness (WT): OCA 30 mg/kg oral, p<0.00001; for wall thickness (WT) in small pulmonary arteries: MCT 60 mg/kg s.c. alone
Method: as §1
Pulmonary vascular remodeling was evaluated by determining wall thickness (WT). Lungs were fixed in 10% buffered formalin and embedded in paraffin, then sectioned at a thickness of 5 μm and stained with hematoxylin-eosin. Ten pulmonary arteries were examined for structural integrity using a morphometric image analysis system independently by two pathologists who were blinded to animal grouping. WT, vessel diameter (ED), were determined. WT(%)=(2×WT/ED)×100%. More than 50 images of pulmonary arterioles (25 to 100 μm diameters) from at least three tissue sections at a magnification of ×20 were captured using amicroscopic digital camera and analyzed using an image analysisprogram (Fiji-win32). The external diameter (D) and medial thickness oneither side (M1 and M2) were measured along the shortest diameter. The medial wall thickness was expressed as follows: % wall thickness=[(M1+M2)/2/D]×100.

## CC[C@H]1[C@@H](O)[C@@H]2[C@H](CC[C@]3(C)[C@@H]([C@H](C)CCC(=O)O)CC[C@@H]23)[C@@]2(C)CC[C@@H](O)C[C@@H]12 [Compound 1, 3α,7α-dihydroxy-6α-ethyl-5β-cholanic acid]
[1]; 28-day treatment, p=0.01 vs. MCT
  PKG1 mRNA expression: significantly upregulates
[1]; after 7 days of OCA dosing
  GC1a3 mRNA expression: significant increase
  PDES mRNA expression: significant increase
  PKG1 mRNA expression: significant increase
[1]; day 7, lung
  MCT-induced MCP-1 expression: significantly reduced
[1]; day 28, lung
  IL-6 mRNA expression: significantly reduced
  MCT-induced MCP-1 expression: significantly reduced
[1]; day 28, p=0.001 vs. MCT
  VEGF mRNA expression: significantly upregulate
[1]; day 28, p=0.038 vs. MCT
  ACE2 mRNA expression: significantly upregulate
Sprague-Dawley (SD) rats [2]
  mortality rate: 13.2%
[3]; TGFβ1 10 ng/ml, 6ECDCA 1 μM, SHP overexpression / block of SHP by siRNA
  downregulation of Col I and CXCL12, dependence on SHP: SHP-mediated
[3]; TGFβ1 10 ng/ml, 6ECDCA 1 μM, with and without block of FXR by siRNA
  downregulation of Col I and CXCL12, dependence on FXR: FXR-mediated
[3]; TGFβ1 10 ng/ml, 6ECDCA 10 μM
  production of collagen I by resident fibroblasts (Col I gene expression): reduced
[3]; TNFα 10 ng/ml, 6ECDCA 10 μM
  production of CXCR12 by resident fibroblasts (CXCL12 gene expression): reduced
[4]
  pulmonary fibrosis: ameliorates the pulmonary fibrosis
Sprague-Dawley (SD) rats [5]
  right ventricular hypertrophy index (RVH), RV/(LV+S): completely normalized RVH
[6]
  ADMA levels in serum and urine: did not reduce ADMA
  albuminuria induced by high salt diet: reduced albuminuria
[6]; 10 mg/kg
  IR-index reduction compared to the vehicle: 38%
[6]; 10 mg/kg and 30 mg/kg, seven week study
  body weight: did not affect the body weight
[6]; 30 mg/kg
  IR-index reduction compared to the vehicle: 21%
  lung weight (pulmonary congestion): reduced lung weight
  renal protection: showed renal protection
[6]; 10 and 30 mg/kg/day oral
  heart rate: did not affect heart rate
[6]; 10 and 30 mg/kg/day oral, listed as 6ECDCA
  blood pressure: did not affect heart rate blood pressure or reduce blood pressure; also recorded: did not reduce blood pressure
[6]; GTT
  glucose levels: trended lower
  insulin levels: trended lower
[6]; GTT at week 5
  insulin sensitivity (Insulin Resistance-Index): reversed insulin resistance
Small pulmonary arteries; day 7
  MCT-induced increase in wall thickness (WT): markedly reduced
Small pulmonary arteries; day 28
  MCT-induced increase in wall thickness (WT): markedly reduced

## C[C@H]1C(=O)O[C@@H]2CCN3CC=C(COC(=O)[C@](C)(O)[C@]1(C)O)[C@H]23 [MCT, monocrotaline, reference compound]
Sprague-Dawley (SD) rats [2]
  mortality rate: 24%
Small pulmonary arteries; day 7, control 19±0.7
  wall thickness (WT) in small pulmonary arteries: 33±0.8%
Small pulmonary arteries; day 28, control 16.8±0.8%
  wall thickness (WT) in small pulmonary arteries: 32.6±0.7%
